The target of one experiment is T1, Apo-3 Ligand (Homo sapiens, UniProt O43508).
T1 construct: made in house; host or cells: E. coli
T1 sequence (O43508 47-249): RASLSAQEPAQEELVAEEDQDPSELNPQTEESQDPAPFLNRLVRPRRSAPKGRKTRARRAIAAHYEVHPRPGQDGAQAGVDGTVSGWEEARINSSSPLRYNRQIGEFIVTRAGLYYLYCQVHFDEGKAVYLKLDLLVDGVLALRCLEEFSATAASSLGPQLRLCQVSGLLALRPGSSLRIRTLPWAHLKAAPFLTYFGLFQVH
Put plainly: Apoptosis induction by Apo-3 Ligand after preincubation with Flag tagged Apo-3 and immunodepletion. The format is cell-based. The following applies: preincubation of ligand and immunodepletion of complexes with anti-Flag beads, FIG. 8B. The source says:
Thus, there appeared to be a specific complex formation between Apo-3 Ligand and Apo-3.

The target of another experiment is T2, DR5 (Homo sapiens, UniProt O14763).
T2 construct: the ECD of the Apo-2L receptor, DR5; made in house
Put plainly: Co-immunoprecipitation binding assay with DR5 ECD. The following applies: ligand and receptor 1 μg/ml, FIG. 8A. As for the experimental part:
A Flag-epitope tagged soluble Apo-3 was produced (as described for DR5 in Sheridan et al., Science, 277:818 (1997)) and tested in a co-immunoprecipitation assay to examine its ability to associate with a histidine tagged soluble Apo-3 Ligand (see Example 3 above). […] The respective ligands (1 μg/ml) and receptors (1 μg/ml) were incubated for 1 hour at room temperature. The reaction mixtures were subjected to precipitation with anti-Flag antibody conjugated to sepharose beads (Kodak) (FIG. 8A, left) or nickel-sepharose (Qiagen) (FIG. 8A, right) by overnight incubation at 4° C. according to manufacturer's instructions and resolved by gel electrophoresis. The ligands were visualized by Western blot analysis with nickel-conjugated horseradish peroxidase. In FIG. 8A, molecular weight markers (kDa) are indicated on the left.

In experiment [1] the test system is HeLa S3 cervical carcinoma cells. Put plainly: Apoptosis in HeLa S3 cells (DNA fragmentation analysis). The following applies: HeLa S3 cells, inhibitor 100 nM, FIG. 9C. The format is cell-based, human. As to the method:
HeLa S3 cervical carcinoma cells (ATCC CCL 2.2) were similarly pre-treated with CHX and then incubated with soluble Apo-3 Ligand (prepared as described in Example 3 above) alone or together with zVAD-fmk or DEVD-fmk (Research Biochemicals) (100 nM). The treated cells were then subjected to DNA fragmentation analysis.

Experiment [2] relates to Jun N-terminal kinase (JNK/SAPK). Briefly: JNK/SAPK activity in 293 cells transfected with full length Apo-3 Ligand. The format is cell-based, human. The following applies: 293 cells, inhibitor 200 μM, FIG. 7. As to the method:
The pRK5 plasmid encoding Apo-3 Ligand polypeptide or empty pRK5 plasmid (see Example 6 above) was transiently transfected into human 293 cells (ATCC CCL 1573) by calcium phosphate precipitation. Four hours later, one set of cells was treated with z-VAD-fmk (Research Biochemicals) (200 μM). Twenty hours later, the cells were harvested and analyzed for activity of Jun N-terminal kinase (JNK; also called stress activated protein kinase or SAPK) using a commercially available JNK/SAPK assay kit (New England Biolabs), and according to the manufacturer's instructions.

The subject of the next experiment is HeLa cells. Put plainly: Apoptosis in HeLa cells transfected with full length Apo-3 Ligand (FACS, annexin V binding). The format is cell-based, human. The note with it: HeLa cells, inhibitor 200 μM, FIG. 6. As for the experimental part:
A pRK5 plasmid (see EP 307,247) encoding Apo-3 Ligand polypeptide (amino acids 1 to 249 of FIG. 1), or empty pRK5 plasmid, was transiently transfected along with a pRK5 plasmid encoding human CD4 as a marker for transfection into human HeLa cells by electroporation, and the cells were plated in tissue culture dishes. Four hours later, the caspase inhibitor z-VAD-fmk (Research Biochemicals) (200 μM) was added to some of the dishes. Twenty hours later, apoptosis was determined by FACS analysis of cells positive for the CD4 marker by measuring binding of fluorescein isothiocyanate (FITC)-conjugated annexin V (Brand Applications) (see WO 97/25428).

For experiment [3], the system named is MCF-7 breast carcinoma cells. Briefly: Apoptosis in MCF-7 breast carcinoma cells (microscopy, Hoechst dye). The note with it: MCF-7 cells pre-treated 1 hour, then 14 hours with ligand, FIG. 9B. The format is cell-based, human. As to the method:
Human MCF-7 breast carcinoma cells (ATCC HTB 22) were pre-treated for 1 hour with cyclohexamide (CHX) (10 μg/ml) and incubated for 14 hours with soluble Apo-3 Ligand (2 μg/ml; prepared as described in Example 3 above) alone or together with zVAD-fmk (Research Biochemicals) (100 nM). The cells were then stained with Hoechst dye and photographed by phase (FIG. 9A, left) and by fluorescence (FIG. 9A, right) microscopy. In FIG. 9A, arrowheads indicate some of the apoptotic cells (left) and their condensed nuclei (right).
In a separate experiment, the MCF-7 cells were pre-treated for 1 hour with buffer or CHX, incubated for an additional 14 hours with the indicated concentrations of soluble Apo-3 Ligand (see FIG. 9B), and apoptotic or live cells were score by microscopy.

Where a SMILES comes first, the peptide text is derived from it. The star is where a group is joined. Cbz = O=C(OCc1ccccc1)*; CH2F = FC*

T2 sequence (O14763 56-184 limits assumed): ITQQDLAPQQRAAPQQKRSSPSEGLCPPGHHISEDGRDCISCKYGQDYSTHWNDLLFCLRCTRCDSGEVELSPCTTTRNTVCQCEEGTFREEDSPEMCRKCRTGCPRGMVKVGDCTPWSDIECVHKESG

On to “Flag tagged Apo-3: Flag-epitope tagged soluble Apo-3 receptor (also DR3, Wsl-1, TRAMP, LARD)”, for which the “effect on apoptosis induction by Apo-3 Ligand” value with Apo-3 Ligand is reported as “inhibited apoptosis induction”.

For “Apo-2 Ligand: TNF family cytokine, also referred to as TRAIL, tested for comparison”, the “binding to DR5” value with DR5 was “bound to DR5”.

With `COC(=O)C[C@H](NC(=O)[C@H](C)NC(=O)[C@@H](NC(=O)OCc1ccccc1)C(C)C)C(=O)CF` [z-VAD-fmk, reference compound] (Cbz-Val-Ala-Asp(OMe)-CH2F), the “effect on induction of apoptosis by Apo-3 Ligand” value in experiment [1] is “blocked induction of apoptosis”. For the same compound, the “effect on JNK activation by Apo-3 Ligand” value in experiment [2] is “augmented JNK activation”. The “effect on the increase in apoptosis by Apo-3 Ligand transfection” value in the experiment on HeLa cells is “blocked”.

On to DEVD-fmk, for which, in experiment [1], the “effect on induction of apoptosis by Apo-3 Ligand” value is reported as “blocked induction of apoptosis”.

Turning to `C[C@@H]1C[C@@H]([C@H](O)CC2CC(=O)NC(=O)C2)C(=O)[C@@H](C)C1` [cyclohexamide, reference compound], the “effect on Apo-3 ligand-induced apoptosis” value in experiment [3] was “augmented”.

The record behind these values is patent US20080171037A1, “Apo-3 ligand polypeptide” (Genentech, Inc., priority 1997, published 2008).
